Values quoted from earlier work, collected in US20110184060A1, “ORAL DOSAGE FORMS HAVING A HIGH LOADING OF A TRANEXAMIC ACID PRODRUG” (XenoPort, Inc., priority 2010, published 2011).
Where two headings read alike, the source gives them in different places.

How the values were obtained:
[1] = human subjects, prodrug
[2] = statement in words, no data given
[3] = not given; remark: listed apart in the source

SMILES: CCOC(=O)OC(C)OC(=O)[C@H]1CC[C@H](CN)CC1 (relative stereo) [Kabi 2161, 1-(ethoxycarbonyl)oxyethyl trans-4-(aminomethyl)-cyclohexane carboxylate]
- oral bioavailability of tranexamic acid [1]: improved oral bioavailability of tranexamic acid

SMILES: CC(OC(=O)NC[C@H]1CC[C@H](C(=O)O)CC1)OC(=O)C(C)C (stereo partly drawn) [Compound (1), 4-({[(2-methylpropanoyloxy)ethoxy]carbonylamino}methyl)cyclohexanecarboxylic acid]
- oral bioavailability of tranexamic acid [2]: high oral bioavailability of tranexamic acid

SMILES: NC[C@H]1CC[C@H](C(=O)O)CC1 [tranexamic acid, trans-4-(aminomethyl)-cyclohexanecarboxylic acid]
- oral bioavailability (oral tranexamic acid): about 30%
- terminal elimination half life (tranexamic acid): about 2 hours
- reduction of post-operative bleeding ([3]; cardiopulmonary bypass surgery, prophylactic administration of lysine analogs such as tranexamic acid): 30-40%
- reduction of total blood loss ([3]; subjects undergoing total knee arthroplasty, prophylactic administration): up to 50%
